Patent US20220373555A1, “Methods to detect or quantify a gadolinium-based contrast agent in a sample using a luminescent agent able to chelate a Gd3+ cation” (THE REGENTS OF THE UNIVERSITY OF CALIFORNIA, priority 2021, published 2022)

Legend:
[1] = Effect of urine on Eu3+-3,4,3-LI(1,2-HOPO) emission / stability in urine; type: physicochemical
Description: Urine is a complex matrix comprised of salts and metabolism by-products, which can potentially affect assay response. […] Although the average pH of human urine is 6.0, there is a strong variation among individuals.^37 Therefore, the following in vitro experiments are performed with urine at 50% dilution with […] buffer (50 mM, pH 6.0) to fix the acidity of the solution, preventing potential variations in the assay response due to sample pH, and 10 min incubation times, which had been optimized in preliminary experiments.
2 μL 3,4,3-LI(1,2-HOPO) (1 mM) and EuCl3 (1 mM) are added to a water solution, mixed for 10 s, and left to incubate at room temperature, without stirring, for 10 min. The absorption spectrum (from 250 to 425 nm) and luminescence spectrum (from 500 to 750 nm under 315 nm excitation) are recorded with a SpectraMax iD3 Multi-Mode Microplate Reader (Molecular Devices, Sunnyvale, Calif.).

[2] = Selectivity of the Eu3+-3,4,3-LI(1,2-HOPO) probe: optical response to Gd3+ and interfering cations; type: physicochemical; conditions: 50 μM cation; emission at 620 nm, 315 nm excitation
Description: The optical response (FIG. 2b) of the Eu^3+-3,4,3-LI(1,2-HOPO) complex to Gd^3+ ions and several potential interfering cations is examined.
2 μL 3,4,3-LI(1,2-HOPO) (1 mM) are added to various solutions containing 50 μM of Gd^3+, Na^+, K^+, Ca^2+ or Mg^2+, mixed for 10 s, and left to incubate at room temperature, without stirring for 10 min. 2 μL EuCl3 (1 mM) are added to the solutions, mixed for 10 s, and left undisturbed for 10 min before recording emission spectra from 500 to 700 nm, under 315 nm excitation with a SpectraMax iD3 Multi-Mode Microplate Reader.

[3] = Quantification of GBCAs in mouse urine by luminescence assay; type: in vivo, Swiss Webster mice; conditions: for [GBCA] in assay solution: mouse urine 2 h after injection, diluted in MES buffer; for [GBCA] in original sample: mouse urine collected 2 h after injection; for GBCA concentration in mouse urine, Luminescence assay: urine collected 2 h after i.v. injection, 0.3 mmol/kg
Description: (§1) Finally, the luminescence assay by quantifying GBCAs in mouse urine samples is validated. The three GBCAs are intravenously injected (four mice per group), and urine is collected 2 h after injection, as mice excrete the contrast agents more quickly than humans do.^41 Due to the different composition between mouse and human urine,^42 calibration curves (FIG. 7) are performed by spiking GBCA standards into urine from control mice rather than into synthetic human urine. Table 4 reports the assay response to the mouse urine samples, and Table 3 compares the GBCA concentrations quantified by the assay versus inductively coupled plasma optical emission spectrometry (ICP-OES), which is one of the gold standard techniques for gadolinium quantification.^43 The assay provided values that are very similar to those of ICP-OES, with only slightly higher standard deviations.
(§2) The protocol used in the animal studies is reviewed and approved by the Institutional Animal Care and Use Committee of Lawrence Berkeley National Laboratory, and is performed in AAALAC-accredited facilities according to prescribed guidelines and regulations. The animals are young adult (78 days old) female (33.0±1.4 g) Swiss Webster mice (Simonsen Laboratories, Gilroy, Calif., USA). Mice are kept under a 12 h light cycle with controlled temperature (21-24° C.) and relative humidity (30-70%), and are given water and food ad libitum. Each group is housed together in a plastic stock cage lined with a 0.5 cm layer of highly absorbent low-ash pelleted cellulose bedding (ALPHA-dri). Groups of four mice are injected intravenously into a warmed lateral tail vein with a single dose of GBCA (0.3 mmol/kg mouse) or bacteriostatic 0.9 bio sodium chloride solution (control group), and urine is collected after 2 h through bladder massage method. Finally, euthanasia is performed under isotiurane anesthesia.
Because the GBCA concentration in mouse urine is very high at early excretion times, the samples are diluted in buffer as described: 1 μL mouse urine samples are mixed with […] MES solutions (final concentration 50 mM, pH 6.0). 4 μL 3,4,3-LI(1,2-HOPO) (1 mM) are added to each solution, mixed for 10 s, and left to incubate at room temperature, without stirring for 10 min. 4 μL EuCl3 (1 mM) are added, mixed for 10 s and left undisturbed for 10 min before recording emission spectra from 500 to 700 nm under 315 nm excitation with a SpectraMax iD3 Multi-Mode Microplate Reader. For calibration curve preparation, GBCA standard solutions are spiked into urine of control mice. The resulting solutions are quantified as previously described in this paragraph.

[4] = Quantification of GBCAs in mouse urine by ICP-OES; type: in vivo, Swiss Webster mice; conditions: urine collected 2 h after i.v. injection, 0.3 mmol/kg
Description: as §1
as §2, with “Groups of four mice are injected intravenously into a warmed lateral tail vein with a single dose of GBCA (0.3 mmol/kg mouse) or bacteriostatic 0.9 bio sodium chloride solution (control group), and urine is collected after 2 h through bladder massage method. Finally, euthanasia is performed under isotiurane anesthesia.” left out
To quantify the concentrations of the GBCA in mouse urine by ICP-OES, 50 μL of commercial stock solutions are digested in 100 μL of nitric acid (70%) and 100 μL of hydrogen chloride (6 N) for 3 h at 60 ° C. and re-dispersed in 4.75 mL of Milli-Q water. The final concentration of gadolinium in solution is quantified on a Perkin Elmer 5300 DV optical emission ICP with auto sampler at the Inductively Coupled Plasma Spectroscopy Facility of the University of California, Berkeley. […]

[5] = Detection of GBCA in synthetic human urine by luminescence quenching assay; conditions: GBCA increased up to 150 μM; 50% synthetic human urine, 50 mM MES pH 6.0
Description: In this assay, 3,4,3-LI(1,2-HOPO) is added to the urine sample and, in the absence of GBCAs, 1,2-HOPO groups remain available to complex other metal species. Eu^3+ is then added, and its emission is sensitized (FIG. 3). In the presence of GBCAs, however, 1,2-HOPO units acquire the Gd^3+ from the contrast agent because of their higher affinity for the metal compared to clinical ligands,^23 preventing the coordination of subsequently added Eu^3+. Thus, a drastic emission quenching is induced in presence of GBCAs.
Surine™ samples containing different amounts of GBCA are diluted down to 50% with MES solution (final concentration 50 mM, pH 6.0). 2 μL 3,4,3-LI(1,2-HOPO) (1 mM) are added to each solution, mixed for 10 s, and left to incubate at room temperature, without stirring for 10 min. 2 μL EuCl3 (1 mM) are added, mixed for 10 s and left undisturbed for 10 min before recording emission spectra from 500 to 700 nm under 315 nm excitation with a SpectraMax iD3 Multi-Mode Microplate Reader.
The limit of detection is calculated as: […]
Where ILOD is the assay response intensity at the limit of detection, Iblank is the response intensity of the blank, and σblank is the standard deviation for the blank signal.

Compound	[GBCA] in assay solution [3]	[GBCA] in original sample [3]	GBCA concentration in mouse urine, Luminescence assay [3]	GBCA concentration in mouse urine, ICP-OES [4]	other results
O=C(NCCCN(CCCCN(CCCNC(=O)c1cccc(=O)n1O)C(=O)c1cccc(=O)n1O)C(=O)c1cccc(=O)n1O)c1cccc(=O)n1O [3,4,3-LI(1,2-HOPO)]					stability in urine ([1]; urine): stable in urine
O.O.O.O.O.O.[Cl-].[Cl-].[Cl-].[Gd+3] [Gd^3+, gadolinium (III) chloride hexahydrate]					quenching of 20 μM Eu^3+-3,4,3-LI(1,2-HOPO) emission [2]: 71±1%
CNC[C@H](O)[C@@H](O)[C@H](O)[C@H](O)CO.CNC[C@H](O)[C@@H](O)[C@H](O)[C@H](O)CO.O=C([O-])CN(CCN(CC(=O)[O-])CC(=O)O)CCN(CC(=O)[O-])CC(=O)O.[Gd+3] [Magnevist, gadopentetate dimeglumine]	101 ± 13 µM	0.020 ± 0.005 M	0.020 ± 0.005 M	0.018 ± 0.000 M	decrease of luminescence of the assay solution [5]: 75±1%
CNC[C@H](O)[C@@H](O)[C@H](O)[C@H](O)CO.CNC[C@H](O)[C@@H](O)[C@H](O)[C@H](O)CO.O=C([O-])CN(CCN(CC(=O)[O-])CC(=O)O)CCN(CC(=O)O)C(COCc1ccccc1)C(=O)[O-].[Gd+3] (stereo not shown) [Multihance, gadobenate dimeglumine]	86 ± 9 µM	0.017 ± 0.004 M	0.017 ± 0.004 M	0.015 ± 0.000 M	
CNC(=O)CN(CCN(CCN(CC(=O)[O-])CC(=O)NC)CC(=O)[O-])CC(=O)[O-].[Gd+3] [Omnsican, gadodiamide]	101 ± 3 µM	0.020 ± 0.001 M	0.020 ± 0.001 M	0.024 ± 0.000 M	
Eu^3+-3,4,3-LI(1,2-HOPO)					effect of urine on emission ([1]; 20 μM, 0 to 100% artificial human urine (Surine), 315 nm excitation): not affected by urine
